How the values were obtained:
B2 bradykinin receptor = target: T1, B2 bradykinin receptor (Homo sapiens, UniProt P30411); assay type: cell membranes, Membrane; settings: chem-1; further: in other assays of this panel Not Active means under 50% inhibition at 10 µM
T1 sequence (P30411 whole entry): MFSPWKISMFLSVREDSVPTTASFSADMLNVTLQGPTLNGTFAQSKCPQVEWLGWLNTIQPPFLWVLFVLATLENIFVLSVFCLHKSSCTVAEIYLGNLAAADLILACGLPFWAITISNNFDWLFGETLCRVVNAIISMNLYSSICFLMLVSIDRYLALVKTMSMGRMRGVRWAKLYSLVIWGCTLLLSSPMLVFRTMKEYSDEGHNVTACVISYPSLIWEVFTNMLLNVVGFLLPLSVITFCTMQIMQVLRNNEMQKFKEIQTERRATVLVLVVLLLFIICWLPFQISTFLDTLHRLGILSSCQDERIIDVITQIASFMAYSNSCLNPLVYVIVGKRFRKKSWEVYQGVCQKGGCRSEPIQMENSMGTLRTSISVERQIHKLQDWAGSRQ

Thromboxane-A synthase = target: T2, Thromboxane-A synthase (Homo sapiens, UniProt P24557); assay: biochemical; assay type: tissue-based, Platelet; settings: platelet;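 further: enzyme inhibition assay with PGH2 supplied as substrate; in other assays of this panel Not Active means under 50% inhibition at 10 µM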
T2 sequence (P24557 whole entry): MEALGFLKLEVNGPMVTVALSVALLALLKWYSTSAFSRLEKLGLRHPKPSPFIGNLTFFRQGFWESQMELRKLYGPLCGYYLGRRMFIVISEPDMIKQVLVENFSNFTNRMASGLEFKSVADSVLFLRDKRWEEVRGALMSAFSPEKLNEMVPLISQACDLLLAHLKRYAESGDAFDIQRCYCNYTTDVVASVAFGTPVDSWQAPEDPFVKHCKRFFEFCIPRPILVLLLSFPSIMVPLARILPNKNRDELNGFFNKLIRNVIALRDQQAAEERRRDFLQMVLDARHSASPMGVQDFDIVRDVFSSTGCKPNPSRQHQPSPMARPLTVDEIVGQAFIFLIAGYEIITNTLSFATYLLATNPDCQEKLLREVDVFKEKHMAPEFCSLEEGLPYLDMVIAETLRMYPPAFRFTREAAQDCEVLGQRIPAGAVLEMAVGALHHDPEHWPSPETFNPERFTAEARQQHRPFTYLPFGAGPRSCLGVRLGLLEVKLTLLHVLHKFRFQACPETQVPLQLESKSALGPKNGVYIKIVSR

[1] = target: T3, Amine oxidase [flavin-containing] A (Homo sapiens, UniProt P21397); assay: DRUGMATRIX: Monoamine Oxidase MAO-A enzyme inhibition (substrate: Kynuramine); parameters: species or system BTI-TN-5B1-4; settings: Not Active = under 50% inhibition at 10 µM
T3 sequence (P21397 whole entry): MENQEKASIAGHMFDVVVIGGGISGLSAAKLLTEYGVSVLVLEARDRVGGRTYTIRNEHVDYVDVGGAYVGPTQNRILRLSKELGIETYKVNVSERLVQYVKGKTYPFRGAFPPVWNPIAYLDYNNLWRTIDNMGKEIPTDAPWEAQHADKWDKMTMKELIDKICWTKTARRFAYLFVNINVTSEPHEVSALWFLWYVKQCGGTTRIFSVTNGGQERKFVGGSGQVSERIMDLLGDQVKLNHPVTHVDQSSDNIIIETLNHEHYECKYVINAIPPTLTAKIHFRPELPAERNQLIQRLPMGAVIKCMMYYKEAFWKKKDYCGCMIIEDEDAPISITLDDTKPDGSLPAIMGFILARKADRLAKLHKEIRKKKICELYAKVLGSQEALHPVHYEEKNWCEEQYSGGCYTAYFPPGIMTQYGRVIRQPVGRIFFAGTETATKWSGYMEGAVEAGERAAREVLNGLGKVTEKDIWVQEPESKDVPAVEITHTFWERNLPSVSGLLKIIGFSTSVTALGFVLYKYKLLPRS

[2] = target: T4, Muscarinic acetylcholine receptor M5 (Homo sapiens, UniProt P08912); assay type: cell membranes, CHO-K1, Membrane; further: in other assays of this panel Not Active means under 50% inhibition at 10 µM
T4 sequence (P08912 whole entry): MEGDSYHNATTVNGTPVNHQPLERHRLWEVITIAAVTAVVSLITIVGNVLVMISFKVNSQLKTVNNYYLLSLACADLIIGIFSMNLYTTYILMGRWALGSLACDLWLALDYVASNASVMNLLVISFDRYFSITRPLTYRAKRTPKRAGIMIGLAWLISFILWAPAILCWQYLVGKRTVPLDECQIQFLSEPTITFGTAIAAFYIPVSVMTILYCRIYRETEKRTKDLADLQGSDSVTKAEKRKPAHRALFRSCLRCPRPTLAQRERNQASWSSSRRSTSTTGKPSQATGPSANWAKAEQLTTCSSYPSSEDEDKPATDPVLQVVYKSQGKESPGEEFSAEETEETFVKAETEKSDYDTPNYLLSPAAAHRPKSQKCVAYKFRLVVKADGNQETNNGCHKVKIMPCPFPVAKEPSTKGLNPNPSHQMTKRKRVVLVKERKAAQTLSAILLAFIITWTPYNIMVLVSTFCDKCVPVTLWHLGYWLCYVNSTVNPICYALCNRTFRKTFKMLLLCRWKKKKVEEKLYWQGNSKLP

[3] = DRUGMATRIX: Nicotinic Acetylcholine radioligand binding (ligand: [125I] Epibatidine); assay type: cell membranes, Membrane; settings: imr-32; Not Active = under 50% inhibition at 10 µM
[4] = target: Mitogen-activated protein kinase 14 (Homo sapiens, UniProt Q16539); parameters: species or system Escherichia coli;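 further: inhibition of p38alpha enzyme activity in a biochemical kinase assay, with myelin basic protein serving as substrate; in other assays of this panel Not Active means under 50% inhibition at 10 µM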
Mitogen-activated protein kinase 14, sequence (Q16539 whole entry): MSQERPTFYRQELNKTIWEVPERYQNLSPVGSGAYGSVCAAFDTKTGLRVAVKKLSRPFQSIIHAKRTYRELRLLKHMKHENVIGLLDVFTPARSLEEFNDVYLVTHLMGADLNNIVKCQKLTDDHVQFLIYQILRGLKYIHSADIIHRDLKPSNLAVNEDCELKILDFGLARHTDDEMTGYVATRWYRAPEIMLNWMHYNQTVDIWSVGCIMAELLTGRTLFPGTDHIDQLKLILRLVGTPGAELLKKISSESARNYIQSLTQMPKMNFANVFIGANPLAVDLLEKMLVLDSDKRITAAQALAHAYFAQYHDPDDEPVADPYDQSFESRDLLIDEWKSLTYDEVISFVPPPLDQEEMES

[5] = DRUGMATRIX: Purinergic P2X radioligand binding (ligand: [3H] alpha, beta-Methylene-ATP); assay type: cell membranes, Oryctolagus cuniculus, New Zealand albino, Urinary bladder, Membrane; settings: Not Active = under 50% inhibition at 10 µM

Row | Molecule | IC50 (B2 bradykinin receptor) | IC50 (Thromboxane-A synthase) | IC50 ([1]; bti-tn-5b1-4) | IC50 ([2]; cho-k1) | IC50 [3] | Ki [3] | IC50 [4] | IC50 [5] | Ki [5] | IC50 ([1]; read-out: IC50) | IC50 ([2]; read-out: IC50) | Ki ([2]; read-out: Ki) | Ki (B2 bradykinin receptor) | Ki (Thromboxane-A synthase) | Ki ([1]; bti-tn-5b1-4) | Ki ([2]; cho-k1) | Ki [4]
1 | C[C@@H]1C/C=C/C=C/C=C/C=C/[C@H](O[C@@H]2O[C@H](C)[C@@H](O)[C@H](N)[C@@H]2O)C[C@@H]2O[C@](O)(C[C@@H](O)C[C@H]3O[C@@H]3/C=C/C(=O)O1)C[C@H](O)[C@H]2C(=O)O [NATAMYCIN] | Not Active | Not Active | Not Active | Not Active | Not Active | Not Active | Not Active | Not Active | Not Active |  |  |  |  |  |  |  | 
2 | CN(C)C(=O)Oc1cccc([N+](C)(C)C)c1.[Br-] [NEOSTIGMINE BROMIDE] | Not Active | Not Active | Not Active | Not Active | Not Active | Not Active | Not Active | Not Active | Not Active |  |  |  |  |  |  |  | 
3 | NC(=O)c1cccnc1 [NIACINAMIDE] | Not Active | Not Active | Not Active | Not Active | Not Active | Not Active | Not Active | Not Active | Not Active |  |  |  |  |  |  |  | 
4 | CS(=O)(=O)Nc1ccc([N+](=O)[O-])cc1Oc1ccccc1 [NIMESULIDE] | Not Active | Not Active | Not Active | Not Active | Not Active | Not Active | Not Active | Not Active | Not Active |  |  |  |  |  |  |  | 
5 | CN1C(=O)CN=C(c2ccccc2)c2cc([N+](=O)[O-])ccc21 [NIMETAZEPAM] | Not Active | Not Active | Not Active | Not Active | Not Active | Not Active | Not Active | Not Active | Not Active |  |  |  |  |  |  |  | 
6 | COc1ccc2c(c1OC)C(=O)O[C@@H]2[C@H]1c2c(cc3c(c2OC)OCO3)CCN1C [NOSCAPINE] | Not Active | Not Active | Not Active | Not Active | Not Active | Not Active | Not Active | Not Active | Not Active |  |  |  |  |  |  |  | 
7 | C[C@@H]1O[C@@H](O[C@H]2C[C@@H](O)[C@]3(CO)[C@H]4[C@H](O)C[C@]5(C)[C@@H](C6=CC(=O)OC6)CC[C@]5(O)[C@@H]4CC[C@]3(O)C2)[C@H](O)[C@H](O)[C@H]1O [OUABAIN] | Not Active | Not Active | Not Active | Not Active | Not Active | Not Active | Not Active | Not Active | Not Active |  |  |  |  |  |  |  | 
8 | NC(=O)N1c2ccccc2CC(=O)c2ccccc21 [OXCARBAZEPINE] | Not Active | Not Active | Not Active | Not Active | Not Active | Not Active | Not Active | Not Active | Not Active |  |  |  |  |  |  |  | 
9 | COc1ccnc(C[S+]([O-])c2nc3ccc(OC(F)F)cc3[nH]2)c1OC (stereo not drawn) [PANTOPRAZOLE] | Not Active | Not Active | Not Active | Not Active | Not Active | Not Active | Not Active | Not Active | Not Active |  |  |  |  |  |  |  | 
10 | N=C(N)c1ccc(OCCCCCOc2ccc(C(=N)N)cc2)cc1 [PENTAMIDINE] | Not Active | Not Active |  |  | Not Active | Not Active | Not Active | Not Active | Not Active | 793 nM | 2880 nM | 2070 nM |  |  |  |  | 
11 | CCc1ccc(CCOc2ccc(CC3SC(=O)NC3=O)cc2)nc1 (stereo not drawn) [PIOGLITAZONE] | Not Active | Not Active |  | Not Active | Not Active | Not Active | Not Active | Not Active | Not Active | 35100 nM |  |  |  |  |  |  | 
12 | CCCNC(C)C(=O)Nc1ccccc1C (stereo not drawn) [PRILOCAINE] | Not Active | Not Active | Not Active | Not Active | Not Active | Not Active | Not Active | Not Active | Not Active |  |  |  |  |  |  |  | 
13 | CCN(CC)CCNC(=O)c1ccc(N)cc1 [PROCAINAMIDE] | Not Active | Not Active | Not Active | Not Active | Not Active | Not Active | Not Active | Not Active | Not Active |  |  |  |  |  |  |  | 
14 | CCN(CC)CCCC(C)Nc1c2ccc(Cl)cc2nc2ccc(OC)cc12 (stereo not drawn) [QUINACRINE] | Not Active | Not Active | Not Active |  | Not Active | Not Active | Not Active | Not Active | Not Active |  | 3740 nM | 2680 nM |  |  |  |  | 
15 | C[C@]12C=CC(=O)C=C1CC[C@H]1[C@@H]3C[C@@H](O)[C@](O)(C(=O)CO)[C@@]3(C)C[C@H](O)[C@@]12F [TRIAMCINOLONE] | Not Active | Not Active | Not Active | Not Active | Not Active | Not Active | Not Active | Not Active | Not Active |  |  |  |  |  |  |  | 
16 | CC[C@]1(O)C[C@@H]2CN(CCc3c([nH]c4ccccc34)[C@@](C(=O)OC)(c3cc4c(cc3OC)N(C)[C@H]3[C@@](O)(C(N)=O)[C@H](O)[C@]5(CC)C=CCN6CC[C@]43[C@@H]65)C2)C1 [VINDESINE] | Not Active | Not Active | Not Active | Not Active | Not Active | Not Active | Not Active | Not Active | Not Active |  |  |  |  |  |  |  | 
17 | CCN(C(C)=O)c1cccc(-c2ccnc3c(C#N)cnn23)c1 [ZALEPLON] | Not Active | Not Active | Not Active | Not Active | Not Active | Not Active | Not Active | Not Active | Not Active |  |  |  |  |  |  |  | 
18 | COBALTOUS CHLORIDE | Not Active | Not Active | Not Active | Not Active | Not Active | Not Active | Not Active | Not Active | Not Active |  |  |  | Not Active | Not Active | Not Active | Not Active | Not Active
19 | COLISTIN | Not Active | Not Active | Not Active | Not Active | Not Active | Not Active | Not Active | Not Active | Not Active |  |  |  | Not Active | Not Active | Not Active | Not Active | Not Active
